Assay results from ChEMBL document CHEMBL5678818, “Discovery of potent SOS1 inhibitors that block RAS activation via disruption of the RAS-SOS1 interaction” (Proc Natl Acad Sci U S A, 2019).

Assays:
[1] = target: Interleukin-1 receptor-associated kinase 1 (Homo sapiens) (UniProt P51617); test: Inhibition of IRAK1 (unknown origin) assessed as residual activity at 1000 nM by KINOMEscan analysis relative to control
[2] = target: T1, Interleukin-1 receptor-associated kinase 4 (Homo sapiens) (UniProt Q9NWZ3); test: Inhibition of IRAK4 (unknown origin) assessed as residual activity at 1000 nM by KINOMEscan analysis relative to control
T1 sequence (whole entry): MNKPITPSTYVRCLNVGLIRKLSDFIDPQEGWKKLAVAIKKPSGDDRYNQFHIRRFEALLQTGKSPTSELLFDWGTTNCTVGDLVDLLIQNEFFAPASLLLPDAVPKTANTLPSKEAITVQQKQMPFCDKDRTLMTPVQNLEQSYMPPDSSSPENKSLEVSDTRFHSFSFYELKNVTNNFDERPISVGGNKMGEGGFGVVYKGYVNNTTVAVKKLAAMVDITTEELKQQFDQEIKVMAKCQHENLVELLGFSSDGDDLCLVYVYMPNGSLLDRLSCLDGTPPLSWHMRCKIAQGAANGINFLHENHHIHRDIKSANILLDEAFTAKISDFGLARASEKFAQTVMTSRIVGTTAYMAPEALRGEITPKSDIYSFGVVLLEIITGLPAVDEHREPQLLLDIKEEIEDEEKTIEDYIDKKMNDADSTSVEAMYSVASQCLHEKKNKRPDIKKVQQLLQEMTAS

[3] = system: Mast/stem cell growth factor receptor Kit (Homo sapiens), P10721 [V559D]; test: Inhibition of KIT V559D mutant (unknown origin) assessed as residual activity at 1000 nM by KINOMEscan analysis relative to control
[4] = target: T2, Phosphorylase b kinase gamma catalytic chain, liver/testis isoform (Homo sapiens) (UniProt P15735); test: Inhibition of PHKG2 (unknown origin) assessed as residual activity at 1000 nM by KINOMEscan analysis relative to control
T2 sequence (whole entry): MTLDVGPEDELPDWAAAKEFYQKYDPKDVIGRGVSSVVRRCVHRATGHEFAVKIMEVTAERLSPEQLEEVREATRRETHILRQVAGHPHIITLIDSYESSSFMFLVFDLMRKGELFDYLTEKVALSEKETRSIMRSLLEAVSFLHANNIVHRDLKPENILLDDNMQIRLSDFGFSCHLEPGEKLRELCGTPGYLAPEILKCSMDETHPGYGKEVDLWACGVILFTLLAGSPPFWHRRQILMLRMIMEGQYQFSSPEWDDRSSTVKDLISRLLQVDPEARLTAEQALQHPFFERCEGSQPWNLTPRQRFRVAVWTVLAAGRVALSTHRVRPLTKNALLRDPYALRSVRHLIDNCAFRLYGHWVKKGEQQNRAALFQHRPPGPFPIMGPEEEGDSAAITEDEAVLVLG

[5] = target: T3, Son of sevenless homolog 1 (Homo sapiens) (UniProt Q07889); test: Binding affinity to N-terminal His10-tagged wild-type recombinant human SOS1 catalytic domain (564 to 1049 residues) expressed in Escherichia coli assessed as change in entropy by ITC analysis
T3 sequence (whole entry): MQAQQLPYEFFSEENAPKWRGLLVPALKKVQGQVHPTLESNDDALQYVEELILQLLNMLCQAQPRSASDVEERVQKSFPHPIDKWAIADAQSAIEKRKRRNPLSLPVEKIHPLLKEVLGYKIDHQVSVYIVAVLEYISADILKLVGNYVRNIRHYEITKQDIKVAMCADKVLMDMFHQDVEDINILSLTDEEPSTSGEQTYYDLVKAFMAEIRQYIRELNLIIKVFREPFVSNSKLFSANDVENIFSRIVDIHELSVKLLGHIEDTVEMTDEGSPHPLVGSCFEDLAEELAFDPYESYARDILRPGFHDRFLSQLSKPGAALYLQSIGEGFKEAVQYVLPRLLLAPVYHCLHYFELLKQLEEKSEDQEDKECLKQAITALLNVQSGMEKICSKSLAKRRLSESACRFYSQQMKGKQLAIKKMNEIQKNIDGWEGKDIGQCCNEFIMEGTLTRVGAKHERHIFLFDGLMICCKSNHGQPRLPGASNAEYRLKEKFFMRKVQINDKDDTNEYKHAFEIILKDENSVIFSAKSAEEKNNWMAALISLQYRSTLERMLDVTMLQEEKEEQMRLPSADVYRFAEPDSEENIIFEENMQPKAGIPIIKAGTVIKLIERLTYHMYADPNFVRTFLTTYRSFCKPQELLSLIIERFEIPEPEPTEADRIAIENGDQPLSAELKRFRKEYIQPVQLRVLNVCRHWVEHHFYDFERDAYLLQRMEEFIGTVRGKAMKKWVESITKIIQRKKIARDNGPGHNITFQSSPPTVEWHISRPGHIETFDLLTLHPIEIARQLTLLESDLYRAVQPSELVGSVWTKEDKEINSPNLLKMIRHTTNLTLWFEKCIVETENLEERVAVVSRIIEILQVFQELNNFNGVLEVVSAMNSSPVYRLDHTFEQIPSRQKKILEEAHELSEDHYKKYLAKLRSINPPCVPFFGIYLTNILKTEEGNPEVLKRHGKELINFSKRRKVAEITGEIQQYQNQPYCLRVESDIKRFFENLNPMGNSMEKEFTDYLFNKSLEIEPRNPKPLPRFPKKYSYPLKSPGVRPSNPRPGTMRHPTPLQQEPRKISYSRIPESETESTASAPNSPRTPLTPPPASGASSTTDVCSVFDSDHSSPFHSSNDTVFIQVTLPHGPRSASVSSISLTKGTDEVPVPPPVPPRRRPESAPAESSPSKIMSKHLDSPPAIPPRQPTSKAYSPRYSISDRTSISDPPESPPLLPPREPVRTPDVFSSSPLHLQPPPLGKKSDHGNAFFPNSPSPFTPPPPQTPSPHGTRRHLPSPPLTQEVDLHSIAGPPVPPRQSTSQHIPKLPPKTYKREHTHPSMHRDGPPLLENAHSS

Chain of Mast/stem cell growth factor receptor Kit (Homo sapiens), P10721 [V559D] (P10721 whole entry V559D, canonical isoform): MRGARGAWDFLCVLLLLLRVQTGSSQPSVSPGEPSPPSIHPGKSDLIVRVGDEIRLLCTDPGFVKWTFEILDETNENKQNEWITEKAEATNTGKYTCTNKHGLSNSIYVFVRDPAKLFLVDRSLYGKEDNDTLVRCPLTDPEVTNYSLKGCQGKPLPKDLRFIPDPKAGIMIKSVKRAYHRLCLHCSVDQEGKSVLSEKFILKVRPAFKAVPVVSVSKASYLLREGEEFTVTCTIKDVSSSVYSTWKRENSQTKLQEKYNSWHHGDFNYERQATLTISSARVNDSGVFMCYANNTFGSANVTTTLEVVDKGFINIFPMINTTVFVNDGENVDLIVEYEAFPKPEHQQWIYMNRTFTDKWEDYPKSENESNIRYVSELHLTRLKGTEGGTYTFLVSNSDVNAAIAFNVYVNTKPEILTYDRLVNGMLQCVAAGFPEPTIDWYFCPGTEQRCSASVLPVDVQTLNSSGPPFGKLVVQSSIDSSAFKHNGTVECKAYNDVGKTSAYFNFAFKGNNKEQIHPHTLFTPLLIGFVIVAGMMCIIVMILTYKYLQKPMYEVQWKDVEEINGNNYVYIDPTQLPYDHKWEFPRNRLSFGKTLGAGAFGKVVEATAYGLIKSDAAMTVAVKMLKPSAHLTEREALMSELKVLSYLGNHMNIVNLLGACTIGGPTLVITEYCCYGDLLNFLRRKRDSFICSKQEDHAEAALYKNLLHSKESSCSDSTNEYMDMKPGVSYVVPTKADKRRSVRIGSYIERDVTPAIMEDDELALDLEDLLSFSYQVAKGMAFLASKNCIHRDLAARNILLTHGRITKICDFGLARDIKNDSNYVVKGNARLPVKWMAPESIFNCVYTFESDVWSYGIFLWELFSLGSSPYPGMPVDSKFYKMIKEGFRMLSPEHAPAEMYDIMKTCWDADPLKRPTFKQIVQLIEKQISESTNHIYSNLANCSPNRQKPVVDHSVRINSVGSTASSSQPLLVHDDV
Chain of Interleukin-1 receptor-associated kinase 1 (Homo sapiens) (P51617 whole entry, looked up): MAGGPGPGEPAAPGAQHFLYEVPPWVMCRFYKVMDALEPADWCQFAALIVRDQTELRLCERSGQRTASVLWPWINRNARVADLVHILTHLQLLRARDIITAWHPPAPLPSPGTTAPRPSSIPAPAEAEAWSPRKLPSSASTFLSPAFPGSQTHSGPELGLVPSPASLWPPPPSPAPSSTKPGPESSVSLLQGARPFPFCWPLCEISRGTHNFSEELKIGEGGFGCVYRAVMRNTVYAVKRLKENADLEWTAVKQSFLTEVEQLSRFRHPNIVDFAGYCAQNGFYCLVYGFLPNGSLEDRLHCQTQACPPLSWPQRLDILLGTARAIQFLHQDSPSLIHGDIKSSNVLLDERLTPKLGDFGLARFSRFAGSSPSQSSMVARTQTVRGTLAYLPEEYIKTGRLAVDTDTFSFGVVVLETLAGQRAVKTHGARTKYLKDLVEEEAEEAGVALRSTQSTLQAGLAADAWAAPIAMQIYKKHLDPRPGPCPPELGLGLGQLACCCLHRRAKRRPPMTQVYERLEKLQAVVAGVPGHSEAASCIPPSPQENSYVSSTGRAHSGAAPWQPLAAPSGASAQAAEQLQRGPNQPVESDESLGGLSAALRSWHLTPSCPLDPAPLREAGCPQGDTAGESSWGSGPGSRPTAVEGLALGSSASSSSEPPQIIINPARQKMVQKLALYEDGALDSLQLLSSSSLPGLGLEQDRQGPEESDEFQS

Compound	Activity [1] [%]	Activity [2] [%]	Activity [3] [%]	Activity [4] [%]	-TdeltaS [5] [kcal/mol]
COc1cc2nc(C)nc(N[C@H](C)c3cccc(-c4cn[nH]c4)c3)c2cc1OC	68	59	81	59	–
COc1cc2ncnc(N[C@H](C)c3cccc4ccccc34)c2cc1OC	85	83	95	100	5.5
CNCc1ccccc1-c1csc([C@@H](C)Nc2nc(C)nc3cc(OC)c(OC)cc23)c1 [BAY-293]	–	–	–	–	5.5
